From ChEMBL document CHEMBL1144881, “3,6-dibromocarbazole piperazine derivatives of 2-propanol as first inhibitors of cytochrome c release via Bax channel modulation” (J Med Chem, 2003)

What was measured:
[1] = system: HeLa; test: cells; assay type: functional; details: Homo sapiens
Description: In vitro inhibition of cytochrome C release in isolated mitochondria by the compound at a concentration of 10 uM was determined

[2] = system: HeLa; test: cells; assay type: functional; details: Homo sapiens; remark: listed apart in the source
[3] = molecular target: Apoptosis regulator BAX (Homo sapiens) (UniProt Q07812); test: cells
[4] = system: HeLa; test: cells; assay type: functional; details: Homo sapiens; remark: listed apart in the source
Description: In vitro inhibition of cytochrome C release in isolated mitochondria by the compound at a concentration of 20 uM was determined

[5] = system: HeLa; test: In vitro inhibition of cytochrome C release in isolated mitochondria by the compound was determined; assay type: functional, Homo sapiens; parameters: concentration or dose not given beside the values

SMILES	inhibition at 10 µM [1] [%]	inhibition at 5 µM [2] [%]	IC50 [3] [nM]	inhibition at 20 µM [4] [%]	Inhibition [5] [%]
FC(F)(CN1CCNCC1)Cn1c2ccc(Br)cc2c2cc(Br)ccc21	83	61	680	96	
COc1ccc(CN2CCN(CC(O)Cn3c4ccc(Br)cc4c4cc(Br)ccc43)CC2)cc1 (stereo not given)	82	61	370	99	
OC(CN1CCN(CCN2CCOCC2)CC1)Cn1c2ccc(Br)cc2c2cc(Br)ccc21 (stereo not given)	74	21	470	95	
O=C(CN1CCNCC1)Cn1c2ccc(Br)cc2c2cc(Br)ccc21			290		71
OC(CN1CCN(Cc2ccc(F)cc2)CC1)Cn1c2ccc(Br)cc2c2cc(Br)ccc21 (stereo not given)			480		65
O=C(Nc1ccc(F)cc1)N1CCN(CC(O)Cn2c3ccc(Br)cc3c3cc(Br)ccc32)CC1 (stereo not given)			1270		15
OC(CN1CCN(c2ccc(F)cc2)CC1)Cn1c2ccc(Br)cc2c2cc(Br)ccc21 (stereo not given)			2380		15
NC(CN1CCNCC1)Cn1c2ccc(Br)cc2c2cc(Br)ccc21 (stereo not given)			960		71
OC(CN1CCNCC1)Cn1c2ccc(Br)cc2c2cc(Br)ccc21 (stereo not given)	94	77		99	
